In publication PMC7203245, “Lacosamide intake during pregnancy increases the incidence of foetal malformations and symptoms associated with schizophrenia in the offspring of mice” (Scientific Reports, 2020):

Legend:
adult mouse neocortex = assay: Nissl staining and immunohistochemistry (calbindin, calretinin, doublecortin) of adult brain; assay type: in vivo, mice
Method: (§1) As formerly described by[59], mice from each experimental group were anesthetized with 4% of chloral hydrate (10 µL/g of weight) and trans-cardiacally perfused with cold saline. Brains were removed and fixed by immersion for 24 h at 4 °C in 4% paraformaldehyde prepared in phosphate-buffered saline (PBS). Tissue was cryoprotected in 30% sucrose-PBS for 2 days at 4 °C and coronal brain sections (50 µm) were then processed for Nissl staining and free-floating immunohistochemistry. Sections encompassed roughly between 2.80 mm to -2.80 mm from Bregma[60] were selected for Toluidine blue staining and immunohistochemical processing. Brain slices from all animals were processed simultaneously in each assay. Immunohistochemistry assays were performed with free-floating sections and an avidin-biotinylated peroxidase method. Primary antibodies used were calbindin (CB, 1:500, Santa Cruz, sc-365360), calretinin (CR, 1:1000, Santa Cruz, sc-26512) and doublecortin (DCX, 1:500, Santa Cruz, sc-8066). Secondary biotinylated antibodies were used (1:500). […] Several control sections were processed without the primary antibody, showing no signal. To minimize variability, at least 2 sections from each area were analysed per animal on a bright-field DMRB RFY HC microscope (Leica) using a 10X objective. For DCX quantification images were taken using a 20X objective and later a whole image of dentate gyrus was reconstructed using Photoshop tiling function. In each section, the total number of labelled cells per area of tissue was quantified using Image-J software (downloaded as a free software package from the public domain: http://rsb.info.nih.gov/ij/download.html). 6 different animals were processed for each primary antibody and pharmacologic treatment from 10 litters.

[1] = as above; assay type: in vivo, mice
Method: as §1

adult male mice [2] = assay: Object recognition memory; assay type: in vivo; settings: 1 hour after the training session; LCM in utero
Method: (§2) All trials were performed by an experimenter blind to the drug treatment.
Object recognition memory. Mice were tested in a rectangular arena (55 x 40 x 40 cm) situated in a room with dim lighting and constant background noise. The object recognition protocol was described extensively elsewhere^2. Briefly, two equal objects were placed in the arena during a 15 minutes training phase and the animal’s memory of the original object was assessed by comparing the amount of time spent exploring the novel object against that for the familiar one in two sessions (of 10 minutes) performed 1 and 24h after training (for short-term and long-term memories [STM and LTM] respectively). The time spent exploring each object was recorded and the relative exploration of the novel object was expressed by a discrimination index [DI = (tnovel-tfamiliar)/(tnovel+tfamiliar)]. The criteria for exploration were based strictly on active exploration. Exploration of an object was defined as directing the nose toward the object at a distance of 1.5 cm and/or touching the object with the nose or vibrissae. Circling or sitting on the object were not considered exploratory behaviours.

adult male mice [3] = assay: Pain assay (hot plate); assay type: in vivo; settings: 120 mg/kg LCM during gestation; at 52 and 55 degrees relative to control
Method: as §2
Pain assay. Pain behaviour was assessed in mice using the hot plate. For the hot-plate test, a glass cylinder (16 cm high, 16 cm in diameter) was used to constrain the mice to the heated surface of the plate. The plate surface was maintained at 50-55 ± 0.5 °C and the latency to commence paw-licking was measured, using a 30 s cut-off time for each of the tested temperatures. Each temperature was tested with 1h apart.

adult male mice [4] = assay: Startle response/prepulse inhibition (PPI) test; assay type: in vivo
Method: as §2
Startle response/prepulse inhibition (PPI) test. Animals were placed individually inside a startle chamber (Cibertec S.A., Madrid, Spain) and the startle response was measured using a piezoelectric accelerometer controlled by a computer. The digitized signal was averaged from 25–30 recordings. For training, the mouse was placed in the startle chamber for an acclimation period of 3 min. Baseline responses were averaged after the presentation of 20 sounds (125 dB, 100 ms long) and from this phase, the average response and peak latencies, and the peak response were determined. During PPI trials, the same 125-dB 100-ms burst was preceded (250 ms) by a prepulse stimulus of 85 dB, lasting for 50 ms. Trials including prepulse stimuli were randomly presented with normal startle stimuli, the final total being 25 of each, and the proportion of PPI was determined as [(1-prepulse/startle)*100]. The ambient background noise was 70 dB.

[5] = LCM concentration in serum of dams by UHPLC-QTOF-MS; assay type: in vivo, mice; settings: female, mouse, intraperitoneal, 24 h post-injection, 2 dams in each dose group (10-120 mg/kg), no relationship with dose
Method: Maternal weights were assessed at the end of the treatment periods. After 14.5 days of gestation (embryonic day14.5, E14.5), blood was extracted from the orbital sinus of the pregnant dams under anaesthesia (70 mg/kg Thiobarbital: Braun Medical S.A. Spain), as described previously[56] and sacrificed by neck dislocation immediately after. Blood samples were centrifuged immediately, and the serum was collected and stored at -80 °C for further chemical analysis.
Samples were extracted as described previously[25] with slight modifications. Briefly, embryos were rinsed with cold saline and ultrapure water, and their wet-weight was determined. They were then homogenized using a 150 T Ultrasonic homogenizer (Fisher Scientific, Spain) and 10 µL of an internal standard solution (IS: aqueous D^3-LCM IS, 5 mg mL^−1) was added to the biological samples (embryos or 50 µL of serum). […] The mixture was vortexed vigorously for 3 min and centrifuged at 13,000 g for 5 min. The supernatant was transferred to a new Eppendorf tube and evaporated to dryness in a stream of nitrogen gas. The residue was reconstituted with 50 µL of LC-MS Ultrapure water, vortexed for 20 s and centrifuged at 13,000 g for 5 min. The supernatant was transferred to a conic micro insert to be injected onto the UHPLC system.
MS spectra data were collected between m/z 50 and 1000, and MS/MS spectra were registered between 50-300 Da. […]

In the case of COC[C@@H](NC(C)=O)C(=O)NCc1ccccc1 [LCM, R-2-acetamido-N-benzyl-3-methoxypropionamide], the “number of CR neurons in PrL cortex” value (adult mouse neocortex; 40 mg/kg in utero) is reported as 10.83 ± 1.12 cells/100 µm², the “number of CR neurons in RSA cortex” value (adult mouse neocortex; 40 mg/kg in utero) is reported as 16.18 ± 1.23 cells/100 µm² and the “number of calbindin (CB) labelled neurons in the amygdala” value (adult mouse neocortex; 40 mg/kg in utero) is reported as 23.28 ± 2.98 cells/100 µm^2. The “number of CR neurons in PrL cortex” value (adult mouse neocortex; 120 mg/kg in utero) was 13.03 ± 1.08 cells/100 µm², the “number of CR neurons in RSA cortex” value (adult mouse neocortex; 120 mg/kg in utero) was 16.94 ± 0.7 cells/100 µm² and the “number of calbindin (CB) labelled neurons in the amygdala” value (adult mouse neocortex; 120 mg/kg in utero) was 13 ± 1.8 cells/100 µm^2. For the same molecule, the “DCX labelling in ventral DG” value ([1]; 40 mg/kg in utero) was 13.46 ± 1.03 cells/100 µm², the “DCX labelling in ventral DG” value ([1]; 120 mg/kg in utero) was 9.75 ± 0.85 cells/100 µm² and the “short-term memory in object recognition” value (adult male mice [2]) was “no effects”. The “thermal nociception in the hot plate test” value (adult male mice [3]) was “significant hyperalgesia”, the “PPI of the acoustic startle response” value (adult male mice [4]; 40 mg/kg in utero) was 54.85 ± 4.27% and the “PPI of the acoustic startle response” value (adult male mice [4]; 120 mg/kg in utero) was 23.19 ± 7.9%. The “acoustic startle reflex parameters (peak latencies, maximum peak response)” value (adult male mice [4]; LCM administration during gestation) was “did not modify any parameters” and the concentration at 24 h [5] was 5 to 133 ng/mL.
